Counter-ions that a name gives are not always drawn.
Legend:
[1] = biological target: T1, Adrenergic β2 (Homo sapiens, UniProt P07550); assay: Adrenergic β2 mediated cAMP production in H292 cells (AlphaScreen), concentration response; type: cell-based; settings: for EC50: 60 min, 300 μM rolipram, read-out: β2 pEC50 (converted); for β2 Intrinsic Activity: fraction relative to the maximum activity determined for formoterol
T1 construct: Adherent H292 cells are removed from tissue culture flasks by treatment with Accutase™ cell detachment solution; endogenous in cells; host or cells: H292 cells
Protocol: Assay for Adrenergic 132 Mediated cAMP Production
H292 cells are grown in 225 cm2 flasks incubator at 37° C., 5% CO2 in RPMI medium containing 10% (v/v) FBS (foetal bovine serum) and 2 mM L-glutamine.
Adherent H292 cells re removed from tissue culture flasks by treatment with Accutase™ cell detachment solution for 15 minutes. Flasks are incubated for 15 minutes in a humidified incubator at 37° C., 5% CO2. Detached cells are re-suspended in RPMI media (containing 10% (v/v) FBS and 2 mM L-glutamine) at 0.1×10^6 cells per mL. 10000 cells in 100 μl, are added to each well of a tissue-culture-treated 96-well plate and the cells incubated overnight in a humidified incubator at 37° C., 5% CO2. The culture media is removed and cells are washed twice with 100 μL assay buffer and replaced with 50 μl assay buffer (HBSS solution containing 10 mM HEPES pH7.4 and 5 mM glucose). Cells are rested at room temperature for 20 minutes after which time 25 μl of rolipram (1.2 mM made up in assay buffer containing 2.4% (v/v) dimethylsulphoxide) is added. Cells are incubated with rolipram for 10 minutes after which time test compounds are added and the cells are incubated for 60 minutes at room temperature. The final rolipram concentration in the assay is 300 μM and final vehicle concentration is 1% (v/v) dimethylsulphoxide. The reaction is stopped by removing supernatants, washing once with 100 μL assay buffer and replacing with 50 μL lysis buffer. The cell monolayer is frozen at −80° C. for 30 minutes (or overnight).
AlphaScreen™ cAMP detection
The concentration of cAMP (cyclic adenosine monophosphate) in the cell lysate is determined using AlphaScreen™ methodology. The frozen cell plate is thawed for 20 minutes on a plate shaker then 10 μL of the cell lysate is transferred to a 96-well white plate. 40 μL of mixed AlphaScreen™ detection beads pre-incubated with biotinylated cAMP, is added to each well and the plate incubated at room temperature for 3 hours in the dark. The AlphaScreen™ signal is measured using an EnVision spectrophotometer (Perkin-Elmer Inc.) with the recommended manufacturer's settings. cAMP concentrations are determined by reference to a calibration curve determined in the same experiment using standard cAMP concentrations. Concentration response curves for agonists are constructed and data is fitted to a four parameter logistic equation to determine both the pEC50 and Intrinsic Activity. Intrinsic Activity is expressed as a fraction relative to the maximum activity determined for formoterol in each experiment.

[2] = biological target: T2, human muscarinic acetylcholine M3 receptor (Homo sapiens, UniProt P20309); assay: Muscarinic 3 receptor binding assay ([3H]NMS competition, SPA), pIC50; settings: [3H]NMS 0.1 nM, CHO-K1 cell membranes expressing human M3 receptor
T2 construct: expressed in transfected cells; host or cells: CHO-K1 (Chinese Hamster Ovary) cell membranes
Protocol: Muscarinic 3 Receptor Binding Assay
The affinity (pIC50) of compounds binding to the M3 receptor is determined by competition binding of [^3H]N-methyl scopolamine (NMS) to CHO-K1 (Chinese Hamster Ovary) cell membranes expressing the human muscarinic acetylcholine M3 receptor (M3-ACh) in a scintillation proximity assay (SPA) format.
SPA beads are precoated with membranes and then incubated at 2 mg of beads per well with serial dilutions of compounds of the invention, [^3H]NMS at 0.1 nM, quarter Kd (experimentally determined dissociation constant) and assay buffer (20 mM HEPES pH 7.4 containing 5 mM MgCl2 and 0.1% (w/v) bovine serum albumin). The assay is conducted in a final volume of 200 μL, in the presence of 1% (v/v) dimethyl sulphoxide (DMSO). Total binding of [^3H]NMS is determined in the absence of competing compound and non-specific binding of [^3H]NMS is determined in the presence of 1 μM atropine. The plates are incubated for 16 hours at room temperature and then read on Wallac Microbeta™ using a normalised ^3H protocol. The pIC50, defined as the negative logarithm of the molar concentration of compound required for 50% reduction in specific [^3H]-NMS binding, is determined.

T2 sequence (P20309 whole entry): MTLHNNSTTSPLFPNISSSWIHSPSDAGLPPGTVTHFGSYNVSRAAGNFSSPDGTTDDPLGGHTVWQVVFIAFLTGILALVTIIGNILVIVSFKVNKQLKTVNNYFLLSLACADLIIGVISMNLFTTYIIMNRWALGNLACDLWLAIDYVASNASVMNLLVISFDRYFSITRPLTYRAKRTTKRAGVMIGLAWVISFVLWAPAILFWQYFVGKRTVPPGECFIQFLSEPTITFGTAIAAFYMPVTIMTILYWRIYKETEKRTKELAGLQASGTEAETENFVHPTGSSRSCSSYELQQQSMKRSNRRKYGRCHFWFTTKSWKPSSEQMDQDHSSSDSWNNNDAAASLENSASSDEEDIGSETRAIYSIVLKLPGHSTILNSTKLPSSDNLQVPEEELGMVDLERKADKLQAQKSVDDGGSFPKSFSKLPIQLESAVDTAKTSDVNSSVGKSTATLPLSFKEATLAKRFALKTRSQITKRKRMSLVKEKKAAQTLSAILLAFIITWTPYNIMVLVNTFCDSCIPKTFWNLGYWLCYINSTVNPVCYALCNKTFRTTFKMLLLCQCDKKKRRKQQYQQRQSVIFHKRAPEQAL
T1 sequence (P07550 whole entry): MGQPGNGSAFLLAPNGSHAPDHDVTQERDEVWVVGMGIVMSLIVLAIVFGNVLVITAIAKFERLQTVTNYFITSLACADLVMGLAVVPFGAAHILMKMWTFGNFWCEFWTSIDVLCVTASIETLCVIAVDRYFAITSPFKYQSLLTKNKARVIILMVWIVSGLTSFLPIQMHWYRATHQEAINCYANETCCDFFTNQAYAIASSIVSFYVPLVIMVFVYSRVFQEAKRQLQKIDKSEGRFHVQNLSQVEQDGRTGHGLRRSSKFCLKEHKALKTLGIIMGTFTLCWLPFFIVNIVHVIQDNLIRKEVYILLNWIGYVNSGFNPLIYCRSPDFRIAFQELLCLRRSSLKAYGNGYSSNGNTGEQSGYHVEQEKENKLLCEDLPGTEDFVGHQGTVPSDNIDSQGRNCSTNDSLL

SMILES	EC50 [1]	β2 Intrinsic Activity [1]	IC50 [2]
CCN(CCNCCc1ccc(O)c2[nH]c(=O)sc12)C(=O)CCOCCc1ccc(CCN2CCC3(CC2)CN(C(=O)c2csc(C(C)C)n2)CCO3)cc1 [Example 1, N-Ethyl-N-(2-(2-(4-hydroxy-2-oxo-2,3-dihydrobenzo[d]thiazol-7-yl)ethylamino)ethyl)-3-(4-(2-(4-(2-isopropylthiazole-4-carbonyl)-1-oxa-4,9-diazaspiro[5.5]undecan-9-yl)ethyl)phenethoxy)propanamide ditrifluoroacetate]	31.6 nM	0.7	2 nM
CC(C)c1nc(C(=O)N2CCOC3(CCN(CCc4ccc(CCOCCC(=O)N(CCNCCc5ccc(O)c6c5OCC(=O)N6)C5CCCCC5)cc4)CC3)C2)cs1 [Example 2, N-Cyclohexyl-N-(2-(2-(5-hydroxy-3-oxo-3,4-dihydro-2H-benzo[b][1,4]oxazin-8-yl)ethylamino)ethyl)-3-(4-(2-(4-(2-Isopropylthiazole-4-carbonyl)-1-oxa-4,9-diazaspiro[5.5]undecan-9-371)ethyl)phenethoxy)propanamide ditrifluoroacetate]	31.6 nM	0.9	1 nM
CCCN(CCNCCc1ccc(O)c2[nH]c(=O)sc12)C(=O)CCOCCc1ccc(CCN2CCC3(CC2)CN(C(=O)c2csc(CC)n2)CCO3)cc1 [Example 3, 3-(4-(2-(4-(2-Ethylthiazole-4-carbonyl)-1-oxa-4,9-diazaspiro[5.5]undecan-9-yl)ethyl)phenethoxy)-N-(2-(2-(4-hydroxy-2-oxo-2,3-dihydrobenzo[d]thiazol-7-yl)ethylamino)ethyl)-N-propylpropanamide ditrifluoroacetate]	200 nM	1.0	1 nM
CCCCN(CCNCCc1ccc(O)c2c1OCC(=O)N2)C(=O)CCOCCc1ccc(CCN2CCC3(CC2)CN(C(=O)c2csc(C(C)C)n2)CCO3)cc1 [Example 4, N-Butyl-N-(2-(2-(5-hydroxy-3-oxo-3,4-dihydro-2H-benzo[b][1,4]oxazin-8-yl)ethylamino)ethyl)-3-(4-(2-(4-(2-isopropylthiazole-4-carbonyl)-1-oxa-4,9-diazaspiro[5.5]undecan-9-yl)ethyl)phenethoxy)propanamide ditrifluoroacetate]	25.1 nM	0.8	0.794 nM
Cc1nc(C(=O)N2CCOC3(CCN(CCc4ccc(CCOCCC(=O)N(CCNCCc5ccc(O)c6c5OCC(=O)N6)C5CCCCCC5)cc4)CC3)C2)cs1 [Example 5, N-Cycloheptyl-N-(2-(2-(5-hydroxy-3-oxo-3,4-dihydro-2H-benzo[b][1,4]oxazin-8-yl)ethylamino)ethyl)-3-(4-(2-(4-(2-methylthiazole-4-carbonyl)-1-oxa-4,9-diazaspiro[5.5]undecan-9-yl)ethyl)phenethoxy)propanamide ditrifluoroacetate]	20 nM	0.9	0.2 nM
CCCC[C@@H](C)N(CCNCCc1ccc(O)c2c1OCC(=O)N2)C(=O)CCOCCc1ccc(CCN2CCC3(CC2)CN(C(=O)c2csc(C)n2)CCO3)cc1 [Example 6, (R)—N-(Hexan-2-yl)-N-(2-(2-(5-hydroxy-3-oxo-3,4-dihydro-2H-benzo[b][1,4]oxazin-8-yl)ethylamino)ethyl)-3-(4-(2-(4-(2-methylthiazole-4-carbonyl)-1-oxa-4,9-diazaspiro[5.5]undecan-9-yl)ethyl)phenethoxy)propanamide ditrifluoroacetate]	31.6 nM	1.0	0.1 nM
CC(C)c1nc(C(=O)N2CCOC3(CCN(Cc4cccc(CCOCCC(=O)N(CCNCCc5ccc(O)c6c5OCC(=O)N6)C5CCCCCC5)c4F)CC3)C2)cs1 [Example 7, N-Cycloheptyl-3-(2-fluoro-3-((4-(2-isopropylthiazole-4-carbonyl)-1-oxa-4,9-diazaspiro[5.5]undecan-9-yl)methyl)phenethoxy)-N-(2-(2-(5-hydroxy-3-oxo-3,4-dihydro-2H-benzo[b][1,4]oxazin-8-yl)ethylamino)ethyl)propanamide ditrifluoroacetate]	39.8 nM	1.0	0.631 nM
CC(C)c1nc(C(=O)N2CCOC3(CCN(Cc4cccc(CCOCCC(=O)N(CCNCCc5ccc(O)c6c5OCC(=O)N6)Cc5ccccc5)c4F)CC3)C2)cs1 [Example 8, N-Benzyl-3-(2-fluoro-3-((4-(2-isopropylthiazole-4-carbonyl)-1-oxa-4,9-diazaspiro[5.5]undecan-9-yl)methyl)phenethoxy)-N-(2-(2-(5-hydroxy-3-oxo-3,4-dihydro-2H-benzo[b][1,4]oxazin-8-yl)ethylamino)ethyl)propanamide ditrifluoroacetate]	39.8 nM	1.1	0.251 nM
CCC(CC)c1nc(C(=O)N2CCOC3(CCN(Cc4cccc(CCOCCC(=O)N(CC)CCNCCc5ccc(O)c6c5OCC(=O)N6)c4F)CC3)C2)cs1 [Example 9, N-Ethyl-3-(2-fluoro-3-((4-(2-(pentan-3-yl)thiazole-4-carbonyl)-1-oxa-4,9-diazaspiro[5.5]undecan-9-yl)methyl)phenethoxy)-N-(2-(2-(5-hydroxy-3-oxo-3,4-dihydro-2H-benzo[b][1,4]oxazin-8-yl)ethylamino)ethyl)propanamide ditrifluoroacetate]	31.6 nM	0.8	0.501 nM
CCN(CCNCCc1ccc(O)c2[nH]c(=O)sc12)C(=O)CCOCCc1cccc(CN2CCC3(CC2)CN(C(=O)c2csc(C(C)C)n2)CCO3)c1F [Example 10, N-Ethyl-3-(2-fluoro-3-((4-(2-isopropylthiazole-4-carbonyl)-1-oxa-4,9-diazaspiro[5.5]undecan-9-yl)methyl)phenethoxy)-N-(2-(2-(4-hydroxy-2-oxo-2,3-dihydrobenzo[d]thiazol-7-yl)ethylamino)ethyl)propanamide ditrifluoroacetate]	31.6 nM	0.8	0.631 nM
CC(C)c1nc(C(=O)N2CCOC3(CCN(Cc4cccc(CCOCCC(=O)N(CCNCCc5ccc(O)c6[nH]c(=O)sc56)C5CCOCC5)c4F)CC3)C2)cs1 [Example 11, 3-(2-Fluoro-3-((4-(2-isopropylthiazole-4-carbonyl)-1-oxa-4,9-diazaspiro[5.5]undecan-9-yl)methyl)phenethoxy)-N-(2-(2-(4-hydroxy-2-oxo-2,3-dihydrobenzo[d]thiazol-7-yl)ethylamino)ethyl)-N-(tetrahydro-2H-pyran-4-yl)propanamide ditrifluoroacetate]	79.4 nM	1.1	0.316 nM
CCc1nc(C(=O)N2CCOC3(CCN(Cc4cccc(CCOCCC(=O)N(CCNCCc5ccc(O)c6c5OCC(=O)N6)C5CCCC5)c4Cl)CC3)C2)cs1 [Example 33a, 3-(2-chloro-3-((4-(2-ethylthiazole-4-carbonyl)-1-oxa-4,9-diazaspiro[5.5]undecan-9-yl)methyl)phenethoxy)-N-cyclopentyl-N-(2-(2-(5-hydroxy-3-oxo-3,4-dihydro-2H-benzo[b][1,4]oxazin-8-yl)ethylamino)ethyl)propanamide, sulphate salt]			0.501 nM

Source: patent publication US8476265B2, “Compounds-801” (AstraZeneca AB, priority 2010, dated 2013)
